# Source: PubChem BioAssay AID206 (DTP/NCI, 2004)
# “And” between values parts separate entries of the source, which are not always exact repeats. Equal values may be shown once. Records with an inconclusive call do not appear.
# Test system: nude mice, HT29 intrarenal xenograft, tumor weight T/C
# Experiment: NCI In Vivo Anticancer Drug Screen. Data for tumor model HT29;CX-1 Human Adenocarcinoma (MER+) (intrarenal inoculation) in NU/NU Swiss (nude) mice
# Settings: endpoint: mean tumor weight change, higher = larger tumour
# Method: The antitumor activity of compounds was measured in mice bearing transplantable tumors. Survival or tumor size were measured and the results are expressed as the measurement made in the treated group (T) divided by the measurement made in the vehicle treated control group (C). The tumor model used in this assay is HT29;CX-1 Human Adenocarcinoma (MER+) (intrarenal inoculation) in NU/NU Swiss (nude) mice
# [1] = dose: 100.0 mg/kg/injection, schedule: Q04DX004 (sc), vehicle: saline
# [2] = dose: 200.0 mg/kg/injection, schedule: Q04DX004 (sc), vehicle: saline
# [3] = dose: 400.0 mg/kg/injection, schedule: Q04DX004 (sc), vehicle: saline
# [4] = dose: 150.0 mg/kg/injection, schedule: Q04DX004 (sc), vehicle: saline with Tween-80
compound,measurement,setting,value
CCOC(C)C(/C=N/NC(N)=S)=NNC(N)=S (centres undefined),T/C,"dose: 100.0 mg/kg/injection, schedule: Q01DX010 (sc), vehicle: saline with Tween-80",76 % of control
same,T/C,"dose: 200.0 mg/kg/injection, schedule: Q01DX010 (sc), vehicle: saline with Tween-80",49 % of control
same,T/C,"dose: 400.0 mg/kg/injection, schedule: Q01DX010 (sc), vehicle: saline with Tween-80",68 % of control
CC1=C(C)C(=O)O[C@@H]([C@](C)(O)[C@]2(O)CC[C@@]3(O)[C@@H]4C[C@H]5O[C@]56CC=CC(=O)[C@]6(C)[C@H]4CC[C@]23C)C1,T/C,"dose: 450.0 mg/kg/injection, schedule: Q04DX004 (sc), vehicle: suspension in saline",86 % of control
same,T/C,"dose: 900.0 mg/kg/injection, schedule: Q04DX004 (sc), vehicle: suspension in saline",76 % of control
same,T/C,"dose: 1800.0 mg/kg/injection, schedule: Q04DX004 (sc), vehicle: suspension in saline",102 % of control
OC1OC2COC(c3ccccc3)OC2C(O)C1O (centres undefined),T/C,"dose: 200.0 mg/kg/injection, schedule: Q04DX004 (sc), vehicle: water",94 % of control
same,T/C,"dose: 400.0 mg/kg/injection, schedule: Q04DX004 (sc), vehicle: water",118 % of control
same,T/C,"dose: 800.0 mg/kg/injection, schedule: Q04DX004 (sc), vehicle: water",87 % of control
same,T/C,"dose: 1600.0 mg/kg/injection, schedule: Q04DX004 (sc), vehicle: water",118 % of control
COC1CC(C)C(OC)C2=CC(=O)C=C(NC(=O)/C(C)=C/C=C\C(C)C(OC(N)=O)/C(C)=C\C(C)C1OC)C2=O (centres undefined),T/C,"dose: 12.5 mg/kg/injection, schedule: Q04DX004 (sc), vehicle: saline + alcohol",99 % of control
same,T/C,"dose: 25.0 mg/kg/injection, schedule: Q04DX004 (sc), vehicle: saline + alcohol",73 % of control
same,T/C,"dose: 50.0 mg/kg/injection, schedule: Q04DX004 (sc), vehicle: saline + alcohol",53 % of control
COC1=C(C)C(=O)C2=C(C1=O)C1C3CC4=C(C(=O)C(OC)=C(C)C4=O)C(CNC(=O)C(C)=O)N3C(C#N)C(C2)N1C (centres undefined),T/C,"dose: 1.0 mg/kg/injection, schedule: Q04DX004 (sc), vehicle: Klucel (hydroxypropylcellulose) (HPC)",99 % of control
same,T/C,"dose: 2.0 mg/kg/injection, schedule: Q04DX004 (sc), vehicle: Klucel (hydroxypropylcellulose) (HPC)",75 % of control
COc1c(CNC(=O)CCl)cc2[nH]c(C)cc2c1CNC(=O)CCl,T/C,"dose: 300.0 mg/kg/injection, schedule: Q04DX004 (sc), vehicle: Klucel (hydroxypropylcellulose) (HPC)",192 % of control
same,T/C,"dose: 600.0 mg/kg/injection, schedule: Q04DX004 (sc), vehicle: Klucel (hydroxypropylcellulose) (HPC)",124 % of control
CCC1=C[C@H]2CN(CCc3c([nH]c4ccccc34)[C@@](C(=O)OC)(c3cc4c(cc3OC)N(C)[C@H]3[C@@](O)(C(=O)NC)[C@H](OC(C)=O)[C@]5(CC)C=CCN6CC[C@]43[C@@H]65)C2)C1,T/C,"dose: 1.0 mg/kg/injection, schedule: Q04DX004 (sc), vehicle: water",106 % of control
same,T/C,"dose: 2.0 mg/kg/injection, schedule: Q04DX004 (sc), vehicle: water",28 % of control
same,T/C,"dose: 4.0 mg/kg/injection, schedule: Q04DX004 (sc), vehicle: water",-20 % of control
CN(C)CCCNc1c2ccccc2nc2cccc([N+](=O)[O-])c12,T/C,"dose: 0.37 mg/kg/injection, schedule: Q04DX004 (sc), vehicle: saline",226 % of control
CCC(C(=O)O)C(=O)O.[NH-]CC1CCCC[N-]1.[Pt+2],T/C,"dose: 50.0 mg/kg/injection, schedule: Q04DX004 (sc), vehicle: saline",113 % of control
same,T/C,[1],96 % of control
same,T/C,[2],79 % of control
same,T/C,[3],59 % of control
COc1cc2cc[n+](C)c(Cc3ccccc3)c2cc1OC,T/C,"dose: 18.75 mg/kg/injection, schedule: Q04DX004 (sc), vehicle: Klucel (hydroxypropylcellulose) (HPC)",73 % of control
same,T/C,"dose: 37.5 mg/kg/injection, schedule: Q04DX004 (sc), vehicle: Klucel (hydroxypropylcellulose) (HPC)",108 % of control
same,T/C,"dose: 75.0 mg/kg/injection, schedule: Q04DX004 (sc), vehicle: Klucel (hydroxypropylcellulose) (HPC)",54 % of control
OC(CCl)CN1CC[N+]2(CC1)CC[N+]1(CCN(CC(O)CCl)CC1)CC2 (centres undefined),T/C,"dose: 32.0 mg/kg/injection, schedule: Q01DX010 (sc), vehicle: water",245 % of control
same,T/C,"dose: 64.0 mg/kg/injection, schedule: Q01DX010 (sc), vehicle: water",59 % of control
same,T/C,"dose: 128.0 mg/kg/injection, schedule: Q01DX010 (sc), vehicle: water",108 % of control
same,T/C,"dose: 256.0 mg/kg/injection, schedule: Q01DX010 (sc), vehicle: water",35 % of control
NCCc1cc(O)c(O)c(O)c1,T/C,[2],92 % of control
same,T/C,[3],120 % of control
same,T/C,"dose: 800.0 mg/kg/injection, schedule: Q04DX004 (sc), vehicle: saline",101 % of control
same,T/C,"dose: 1600.0 mg/kg/injection, schedule: Q04DX004 (sc), vehicle: saline",61 % of control
N#CCCSC(=S)C1CCCC1=N (centres undefined),T/C,"dose: 225.0 mg/kg/injection, schedule: Q04DX004 (sc), vehicle: saline with Tween-80",104 % of control
same,T/C,"dose: 450.0 mg/kg/injection, schedule: Q04DX004 (sc), vehicle: saline with Tween-80",106 % of control
same,T/C,"dose: 900.0 mg/kg/injection, schedule: Q04DX004 (sc), vehicle: saline with Tween-80",114 % of control
same,T/C,"dose: 1800.0 mg/kg/injection, schedule: Q04DX004 (sc), vehicle: saline with Tween-80",103 % of control
Clc1cc(Cl)c(C[N+]23CN4CN(CN(C4)C2)C3)cc1Cl,T/C,"dose: 37.5 mg/kg/injection, schedule: Q04DX004 (sc), vehicle: saline with Tween-80",85 % of control
same,T/C,"dose: 75.0 mg/kg/injection, schedule: Q04DX004 (sc), vehicle: saline with Tween-80",95 % of control
same,T/C,[4],68 % of control
O.O.[NH-]C1CCCCC1[NH-].[Pt+2] (centres undefined),T/C,"dose: 10.0 mg/kg/injection, schedule: Q01DX010 (sc), vehicle: saline",74 % of control
same,T/C,"dose: 20.0 mg/kg/injection, schedule: Q01DX010 (sc), vehicle: saline",54 % of control
c1csc(C[N+]23CN4CN(CN(C4)C2)C3)c1,T/C,[1],76 % of control
same,T/C,[2],97 % of control
same,T/C,[3],61 % of control
COc1ccc(CC2C(=O)NC(C)C(=O)N(C)C3Cc4ccc(cc4)Oc4cc(ccc4O)CC(C(=O)NC(C)C(=O)NC(C)C(=O)N2C)N(C)C3=O)cc1 (centres undefined),T/C,"dose: 1.0 mg/kg/injection, schedule: Q04DX004 (sc), vehicle: saline with Tween-80",59 % of control
same,T/C,"dose: 2.0 mg/kg/injection, schedule: Q04DX004 (sc), vehicle: saline with Tween-80",64 % of control
same,T/C,"dose: 4.0 mg/kg/injection, schedule: Q04DX004 (sc), vehicle: saline with Tween-80",70 % of control
same,T/C,"dose: 8.0 mg/kg/injection, schedule: Q04DX004 (sc), vehicle: saline with Tween-80",56 % of control and 68 % of control
same,T/C,"dose: 16.0 mg/kg/injection, schedule: Q04DX004 (sc), vehicle: saline with Tween-80",70 % of control
OC(CBr)C(O)C(O)C(O)CBr (centres undefined),T/C,"dose: 15.0 mg/kg/injection, schedule: Q01DX010 (sc), vehicle: Klucel (hydroxypropylcellulose) (HPC)",82 % of control
same,T/C,"dose: 30.0 mg/kg/injection, schedule: Q01DX010 (sc), vehicle: Klucel (hydroxypropylcellulose) (HPC)",44 % of control
same,T/C,"dose: 120.0 mg/kg/injection, schedule: Q01DX010 (sc), vehicle: Klucel (hydroxypropylcellulose) (HPC)",43 % of control
same,T/C,"dose: 200.0 mg/kg/injection, schedule: Q01DX010 (sc), vehicle: Klucel (hydroxypropylcellulose) (HPC)",101 % of control
same,T/C,"dose: 400.0 mg/kg/injection, schedule: Q01DX010 (sc), vehicle: Klucel (hydroxypropylcellulose) (HPC)",59 % of control
S=c1nc[nH]c2nc[nH]c12,T/C,"dose: 12.5 mg/kg/injection, schedule: Q01DX010 (sc), vehicle: Klucel (hydroxypropylcellulose) (HPC)",200 % of control
same,T/C,"dose: 25.0 mg/kg/injection, schedule: Q01DX010 (sc), vehicle: Klucel (hydroxypropylcellulose) (HPC)",81 % of control
COc1cc(C)c2c(c1C=O)Oc1c(c(C)c(O)c3c1C(O)OC3=O)OC2=O (centres undefined),T/C,"dose: 50.0 mg/kg/injection, schedule: Q01DX010 (sc), vehicle: saline",68 % of control
same,T/C,"dose: 200.0 mg/kg/injection, schedule: Q01DX010 (sc), vehicle: saline",50 % of control
COC(=Nc1ccccc1)SSC(C)C,T/C,[4],104 % of control
same,T/C,"dose: 300.0 mg/kg/injection, schedule: Q04DX004 (sc), vehicle: saline with Tween-80",118 % of control
same,T/C,"dose: 600.0 mg/kg/injection, schedule: Q04DX004 (sc), vehicle: saline with Tween-80",117 % of control
same,T/C,"dose: 1200.0 mg/kg/injection, schedule: Q04DX004 (sc), vehicle: saline with Tween-80",117 % of control
COC(=O)c1ccoc1,T/C,"dose: 150.0 mg/kg/injection, schedule: Q04DX004 (sc), vehicle: saline",116 % of control
CS(=O)(=O)OCCN(CCOS(C)(=O)=O)c1ccc(C=Nc2ccc(-c3csc(COc4ccccc4)n3)cc2)cc1,T/C,"dose: 50.0 mg/kg/injection, schedule: Q01DX010 (sc), vehicle: Klucel (hydroxypropylcellulose) (HPC)",72 % of control
same,T/C,"dose: 100.0 mg/kg/injection, schedule: Q01DX010 (sc), vehicle: Klucel (hydroxypropylcellulose) (HPC)",44 % of control
